Test results as given in patent US8629144B2, “Polymorphic and hydrate forms, salts and process for preparing 6-{difluoro[6-(1-methyl-1H-pyrazol-4-yl)[1,2,4]triazolo[4,3-b]pyridazin-3-yl]methyl}quinoline” (Janssen Pharmaceutica NV, priority 2007, dated 2014).
Several values for one entry are separate records, joined by “and”; a condition that tells them apart may be missing. Equal values may be shown once. Where a name gives a salt, the structure may show the parent alone.

Experiments:
[1] = tested on: S114 tumors; test: S114 tumor model; format: in vivo, athymic nude mice; details: 100 mg/kg p.o. q.d., four consecutive days
Procedure: Female athymic nude mice (CD-1, nu/nu, 9-10 weeks old) were obtained from Charles River Laboratories (Wilmington, Mass.) and were maintained according to NIH standards. All mice were group housed (5 mice/cage) under clean-room conditions in sterile micro-isolator cages on a 12-hour light/dark cycle in a room maintained at 21-22° C. and 40-50% humidity. Mice were fed irradiated standard rodent diet and water ad libitum. All animals were housed in a Laboratory Animal Medicine facility that is fully accredited by the American Association for Assessment and Accreditation of Laboratory Animal Care (AAALAC). All procedures involving animals were conducted in compliance with the NIH Guide for the Care and Use of Laboratory Animals and all protocols were approved by an Internal Animal Care and Use Committee (IACUC).
The murine NIH 3T3 derived cell line S114, which has been engineered to over-express both […] (HGF) and the human c-Met receptor, was propagated in DMEM media (Life Technologies, Bethesda, Md.). Immediately prior to injection, cells were washed counted and resuspended in PBS. Female athymic nude mice weighing no less than 20-21 grams were inoculated subcutaneously in the left inguinal region of the thigh with 5×10^6 cells in a delivery volume of 0.1 mL. Tumors were allowed to grow to for five days.
Mice were dosed orally at 100 mg/kg compound in 20% HPBCD or with vehicle (20% HPBCD, control group). Dosing was continued for 4 consecutive days. Compounds of the invention were prepared fresh daily as a clear solution in 20% HPBCD and administered as described above. Body weight was measured at the end of the study and a loss of body weight >10% was used as an indication of lack of compound tolerability. Unacceptable toxicity was defined as body weight loss >20% during the study. Mice were closely examined daily at each dose for overt clinical signs of adverse, drug-related side effects.
On the day of study termination, a final tumor volume and final body weight were obtained on each animal. […]

[2] = target: T1, c-Met kinase (Homo sapiens, UniProt P08581); test: c-Met autophosphorylation assay with radioactive ATP; format: biochemical; details: [33P]-γ-ATP, 60 min room temperature, read-out: IC50 for c-Met kinase inhibition
T1 construct: His-6 (N); purchased Panvera Lot 40047X; host or cells: Sf9 insect cells (baculovirus), for the His6-MetKin construct scaled up at Pan Vera
Procedure: The present autophosphorylation assay uses radioactive ATP to measure the incorporation of phosphate upon c-Met autophosphorylation. The assay procedure for screening is as follows.
c-Met enzyme (purchased from Panvera, Lot 40047X, 2.4 mg/ml); “Assay buffer” (13.3 mM MOPS pH 7; 0.33 mM EDTA); “Enzyme buffer” (20 mM MOPS pH 7; 1 mM EDTA; 0.01% Brij 35; 5% glycerol; 0.1% beta mercapto-EtOH); 100 mM MgAc; 3% phosphoric acid; 75 mM phosphoric acid; 1 mM ATP-stock; [^33P]-γ-ATP (NEN, NEG602H); round-bottom 96-well plates (Corning, 3799); Filtermat P30-filters (Perkin Elmer); “Enzyme mix” (698.80 μl of Enzyme buffer as above+1.17 μl of c-Met enzyme as above); “Substrate mix” (946.00 μl of 100 mM MgAc+50.00 μl ATP (0.1 mM)+4.00 μl [^33P]-γ-ATP as above).
• 1. Distribute 15 μl assay buffer per well. • 2. Add 0.5 μl dilution of tested c-Met inhibitor (e.g., compound (I) or its forms or salts) in DMSO. • 3. Add 5 μl Enzyme mix per well (control: Enzyme buffer in blanc). • 4. Add 5 μl Substrate mix per well. • 5. Incubate at room temperature for 60 min. • 6. Stop reaction with 3% phosphoric acid, 5 μl per well • 7. Shake plate • 8. Spot 5 μl from a well to filtermat P30. • 9. […] Expose the filter to phosphor storage cassette overnight on low energy phosphor storage plate, and detect and quantify the signal using a suitable phosphorimager (herein, Typhoon) Results

[3] = tested on: U87MG tumors; test: U87MG glioblastoma tumour xenograft model; format: in vivo, athymic nude mice; details: for Decrease of mean tumor volume: Day 12, p<0.01
Procedure: The U87MG glioblastoma cell line (Piedmont Research Center LLC) expresses the c-Met receptor and responds to […] (HGF). This study investigated whether treatment with an inhibitor of c-Met is efficacious against the U87MG glioblastoma tumor xenograft model. This study utilized a tumor growth inhibition (TGI) assay to test per os (p.o.) compound monotherapy in groups of fifteen nude mice. A control group was treated with vehicle, 20% Hydroxypropyl Beta-Cyclodextrin (HPBCD). All treatments began on Day 1 (D1) in mice bearing established subcutaneous (s.c.) U87MG tumors.
Female athymic nude mice (Harlan) were 10-11 weeks old with a BW range of 18.1-25.0 g on D1 of the study. The animals were fed ad libitum water (reverse osmosis, 1 ppm Cl) and NIH 31 Modified and Irradiated Lab Diet® consisting of 18.0% crude protein, 5.0% crude fat, and 5.0% crude fiber. The mice were housed on irradiated ALPHA-Dri® bed-o-cobs® Laboratory Animal Bedding in static microisolators on a 12-hour light cycle at 21-22° C. (70-72° F.) and 40-60% humidity. All animals were housed in a Laboratory Animal Medicine facility that is fully accredited by the American Association for Assessment and Accreditation of Laboratory Animal Care (AAALAC). All procedures involving animals were conducted in compliance with the NIH Guide for the Care and Use of Laboratory Animals and all protocols were approved by an Internal Animal Care and Use Committee (IACUC).
Xenografts were initiated from U87MG human glioblastoma tumor fragments maintained by serial transplantation in athymic nude mice. Each test mouse received a subcutaneous U87MG tumor fragment (1 mm^3) implanted in the right flank, and the growth of tumors was monitored as the average size approached 200 mm^3. Twelve days later, on Day 1 of the study, the animals were sorted into 4 groups (n=12-15 mice/group) with individual tumor volumes ranging from 172-352 mm^3 and group mean tumor volumes of 216 mm^3. Tumor volume was calculated using the formula: […]
Dosing solutions of compounds of the present invention were prepared fresh weekly in a vehicle consisting of 20% Hydroxypropyl Beta-Cyclodextrin (HPBCD) in water. In all groups, the dosing volume of 0.2 mL/20-g mouse was scaled to the body weight of each animal. Doses were given to allow for the HCl salt form of the compound.
TGI was calculated from the difference between the median tumor volumes of vehicle-treated and drug-treated mice, expressed as a percentage of the median tumor volume of the vehicle-treated control group, by the following relation:
The MTV (n) is defined as the median tumor volume (MTV) for the number of animals, n, remaining in the study on that day.
Animals were weighed daily for the first five days of the study and then twice weekly. The mice were examined frequently for overt signs of any adverse, drug-related side effects, and clinical signs of toxicity were recorded when observed. Acceptable toxicity is defined as a group mean body-weight (BW) loss of less than 20% during the study, and not more than one treatment-related (TR) death among ten animals. A death is classified as TR if it is attributable to treatment side effects as evidenced by clinical signs and/or necropsy, or due to unknown causes during the dosing period or within 10 days of the last dose. A death is classified as non treatment-related (NTR) if there is no evidence that the death was related to drug side effects. […]

[4] = Water adsorption (hygroscopicity) of salts of compound (I); format: physicochemical
Procedure: Free base of compound (I) (3 g; 7.95 mmol) was dissolved in absolute ethanol (40 mL) and heated to 78° C. An acid (HCl 6M in 2-propanol, 2.0 ml (12 mmol); HBr 48% in water, 0.98 mL (8.75 mmol); methane sulphonic acid, 917 mg (9.54 mmol); ethane sulphonic acid, 1.05 g (9.54 mmol) or p-toluene sulphonic acid monohydrate (1.66 g (8.75 mmol)) was added to the hot reaction mixture. The reaction mixture was allowed to cool to room temperature. The resulting precipitate was filtered off, washed with ethanol and dried under vacuum at 60° C.
The obtained solids were analysed by acid titration, Karl-Fisher titration and HPLC. A physical characterisation was performed (DSC, TGA, XRD and IR, DVS).

[5] = Absorption and plasma kinetics after oral administration of salts to rat; details: male, SD, rat, plasma, po
Procedure: Five male SD rats (225±11 g) were used per salt form. From each rat a complete plasma concentration time profile was obtained. Tap water and food were available ad libitum. The test involved salts of compound (I) with HBr, HCl, methanesulphonic acid (mesylate), ethanesulphonic acid (esylate) or p-toluenesulphonic acid (tosylate). The individual salts were dispersed in a 0.5% methocel suspension to a final concentration of 1 mg base eq./ml. The formulations were stored at room temperature.
Administration was oral by gastric intubation: 10 ml/kg to obtain a dose of 10 mg base eq./kg.
Blood samples were collected 30 min, 1, 2, 4, 7 and 24 h after dose administration.
Blood was collected by multiple sampling from a tail vein into Multivette® 600 K3E tubes (Sarstedt). Samples were placed immediately on melting ice and plasma was obtained following centrifugation at 4° C. for 10 minutes at approximately 1900×g. All samples were shielded from daylight and stored at ≦−18° C. prior to analysis.
A limited pharmacokinetic analysis was performed using WinNonlin™ Professional (Version 5.1). A non-compartmental analysis using the lin/log trapezoidal rule with lin/log interpolation was used for all data.

[6] = Water solubility of salts of compound (I); format: physicochemical; details: 24 hours at 20° C.
Procedure: An excess of different salts of compound (I) was agitated with water during 24 hours at 20° C. Following filtration, the concentration of compound (I) in the solution was determined by UV spectrometry.

T1 sequence (P08581 956-1390 limits assumed): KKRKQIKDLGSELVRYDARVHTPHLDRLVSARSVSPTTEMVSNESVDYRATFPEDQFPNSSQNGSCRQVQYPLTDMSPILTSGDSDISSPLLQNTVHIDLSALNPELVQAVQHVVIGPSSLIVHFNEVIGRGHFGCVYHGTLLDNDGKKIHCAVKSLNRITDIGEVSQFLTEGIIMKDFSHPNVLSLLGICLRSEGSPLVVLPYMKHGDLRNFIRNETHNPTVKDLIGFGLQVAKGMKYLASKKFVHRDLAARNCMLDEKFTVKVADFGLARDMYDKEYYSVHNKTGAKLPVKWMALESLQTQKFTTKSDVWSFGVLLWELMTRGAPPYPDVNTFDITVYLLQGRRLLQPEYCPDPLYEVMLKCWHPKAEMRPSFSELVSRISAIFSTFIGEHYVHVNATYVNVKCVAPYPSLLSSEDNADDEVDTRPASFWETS

**Q.** What does the source list for `Cn1cc(-c2ccc3nnc(C(F)(F)c4ccc5ncccc5c4)n3n2)cn1` [Compound (I), 6-{difluoro[6-(1-methyl-1H-pyrazol-4-yl)[1,2,4]triazolo[4,3-b]pyridazin-3-yl]methyl}quinoline]?
**A.** S114 tumor regression, mice responding [1]: regressed in all five mice; Mice with tumors regressed to non-palpable, non-detectable ([1]; end of study): three of the five mice; Final tumour weights ([1]; individual mice): 0.017 g (2×) and no tumour (3×); IC50 [2]: ~7.01 nM; Decrease of mean tumor volume ([3]; 25 mg/kg p.o. (q.d. day 1, b.i.d. to day 12)): 94%; Decrease of mean tumor volume ([3]; 50 mg/kg p.o. (b.i.d. 7 days, 24-hr pause, q.d. to day 12)): 96%; Decrease of mean tumor volume ([3]; 75 mg/kg p.o. (b.i.d. 7 days, 24-hr pause, q.d. to day 12)): 97%; Tumor growth inhibition of U87MG tumors ([3]; p.o. 25, 50 and 75 mg/kg, all doses, p<0.01): statistically significant; Tumor regression ([3]; p.o. 25, 50 and 75 mg/kg, all three doses): Tumor regression was also observed

**Q.** For `Cn1cc(-c2ccc3nnc(C(F)(F)c4ccc5ncccc5c4)n3n2)cn1` [HCl salt], which Hygroscopicity [4] is on record?
**A.** The Hygroscopicity was “hygroscopic”.

**Q.** What about the Water adsorbed ([4]; dried 1 h at 25° C. under dry nitrogen flow, depending on the atmospheric humidity) of the same compound?
**A.** The Water adsorbed was “up to 11.4%”.

**Q.** And the concentration at 0.5 h ([5]; 10 mg base eq./kg)?
**A.** The concentration at 0.5 h was 3090 ± 235 ng/mL.

**Q.** And the concentration at 1 h ([5]; 10 mg base eq./kg)?
**A.** Its concentration at 1 h is 4210 ± 685 ng/mL.

**Q.** What about the concentration at 2 h ([5]; 10 mg base eq./kg) of the same compound?
**A.** Its concentration at 2 h is 4290 ± 803 ng/mL.

**Q.** And the concentration at 4 h ([5]; 10 mg base eq./kg)?
**A.** The concentration at 4 h was 2710 ± 706 ng/mL.

**Q.** What about the concentration at 7 h ([5]; 10 mg base eq./kg) of the same compound?
**A.** Its concentration at 7 h is 1940 ± 702 ng/mL.

**Q.** And the concentration at 24 h ([5]; 10 mg base eq./kg)?
**A.** The concentration at 24 h was 56.1 ± 16.6 ng/mL.

**Q.** And the AUC0-inf ([5]; 10 mg/kg)?
**A.** The AUC0-inf was 29900 ± 7260 ng·h/mL.

**Q.** What about the AUC(0-t) ([5]; 10 mg/kg) of the same compound?
**A.** The AUC(0-t) was 29600 ± 7220 ng·h/mL.

**Q.** What about the Cmax ([5]; 10 mg/kg) of the same compound?
**A.** Its Cmax is 4430 ± 683 ng/mL.

**Q.** And the Tmax ([5]; 10 mg/kg)?
**A.** The Tmax was 1.6 ± 0.5 h.

**Q.** And the half-life ([5]; 10 mg/kg)?
**A.** The half-life was 3.5 ± 0.3 h.

**Q.** And the “Measured pH” value ([6]; saturated solution in water)?
**A.** The value was “pH = 1.8”.

**Q.** And the solubility thermodynamic at 24 h ([6]; water, UV spectrometry)?
**A.** Its solubility thermodynamic at 24 h is 380 µg/mL.

**Q.** What about the IC50 [2] of the same compound?
**A.** Its IC50 is ~13.2 nM.
